Activity calls are given as the source filed them. How the calls were made is not given here.
Target: Microphthalmia-associated transcription factor (Homo sapiens) (UniProt O75030)
Assay: MITF inhibitors by FRET titration, dose response, biochemical, high throughput (AID 1259375);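 further: FRET between CFP-tagged and YFP-tagged MITF protein partners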
Conditions: FRET biochemical assay, MITF inhibition

Microphthalmia-associated transcription factor (Homo sapiens), sequence (O75030 whole entry, looked up): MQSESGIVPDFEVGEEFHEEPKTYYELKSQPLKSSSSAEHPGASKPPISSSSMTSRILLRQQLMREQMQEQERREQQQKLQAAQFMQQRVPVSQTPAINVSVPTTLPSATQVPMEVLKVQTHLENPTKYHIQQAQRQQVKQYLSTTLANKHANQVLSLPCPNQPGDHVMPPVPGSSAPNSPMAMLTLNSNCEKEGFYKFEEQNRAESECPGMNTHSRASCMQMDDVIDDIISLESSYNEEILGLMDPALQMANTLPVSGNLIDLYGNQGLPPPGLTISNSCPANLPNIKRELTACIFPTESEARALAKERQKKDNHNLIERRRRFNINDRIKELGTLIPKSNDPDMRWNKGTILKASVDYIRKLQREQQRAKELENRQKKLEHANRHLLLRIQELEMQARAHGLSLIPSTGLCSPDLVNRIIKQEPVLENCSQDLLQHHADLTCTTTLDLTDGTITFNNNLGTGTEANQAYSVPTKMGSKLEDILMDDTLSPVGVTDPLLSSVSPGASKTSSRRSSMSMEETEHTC

Structure (SMILES)	IC50
N#Cc1c(-c2ccc3c(c2)OCO3)nc(N2CCCCC2)[nH]c1=O	> 6.48 µM (inactive)
COc1ccc(C[C@@H]2NC(=O)[C@H]3CN(C(=O)NCc4ccccc4)CCN3C2=O)cc1	> 6.48 µM (inactive)
N[C@@H](C(=O)N[C@@H]1C(=O)N2C(C(=O)O)=C(CSC3CNNN3)CS[C@H]12)c1ccc(O)cc1 (some centres undefined) (tested in a mixture with another compound)	> 5.58 µM (inactive)
CCS(=O)(=O)NCC(c1cccs1)S(=O)(=O)c1ccc(C)cc1 (centres undefined)	> 6.6 µM (inactive)
COc1ccc(C[C@@H]2NC(=O)[C@H]3CN(C(=O)NC4CCCCC4)CCN3C2=O)cc1	> 6.48 µM (inactive)
CC(O)C(=O)N/N=C/C=C/c1ccc([N+](=O)[O-])o1 (centres undefined)	> 7.17 µM (inactive)
CC1=C(C#N)C(c2cc3c(cc2[N+](=O)[O-])OCO3)C2=C(CCCC2=O)N1 (centres undefined)	> 6.48 µM (inactive)
NC(=O)c1ccc(N=Cc2cc3c(cc2[N+](=O)[O-])OCO3)cc1	4.37 µM
N#Cc1cc([N+](=O)[O-])ccc1NC(=O)COC(=O)c1cc(-c2ccco2)nc2ccccc12	> 7.03 µM (inactive)
O=C(/C=C/c1ccco1)NC(=S)Nc1ccc(Cl)c(C(=O)O)c1	> 6.48 µM (inactive)
NC(=O)COC(=O)/C=C/c1ccc(I)o1	> 7.27 µM (inactive)
CN(C)/C=C/C=C/C(=O)C1CCC/C(=C\C=C\N(C)C)C1=O (centres undefined)	> 6.48 µM (inactive)
NC1(C(Cl)(Cl)Cl)Oc2ccccc2O1	> 6.48 µM (inactive)
NCC1OC(=O)C(Oc2ccccc2)=C1Br (centres undefined)	> 6.48 µM (inactive)
CCC[C@@H]1NC(=O)[C@H]2CN(C(=O)NC3CCCCC3)CCN2C1=O	> 6.48 µM (inactive)
CN(C)CCS(=O)c1cc(-c2cn[nH]c2)ccc1NC(=O)[C@H]1Cc2cc(F)ccc2CN1 (some centres undefined)	> 6.48 µM (inactive)
O=C(NC1CCCCC1)N1CCN2C(=O)[C@@H]3CSCN3C(=O)[C@H]2C1	> 6.48 µM (inactive)
COc1cc(C=Nc2ccc(N(C)C)cc2)cc(I)c1O	> 6.48 µM (inactive)
C[C@@H](O)[C@@H]1NC(=O)[C@H]2CN(C(=O)NCc3ccccc3)CCN2C1=O	> 6.48 µM (inactive)
CCn1ccnc1CN1CCN(Cc2cccc(OC)c2)C(CCO)C1 (centres undefined)	> 6.48 µM (inactive)
O=C(O)c1cc(NN=C2CCCC2)ccc1Cl	> 7.18 µM (inactive)
COc1cc(OC)c(OC)cc1CN1CCN(Cc2ccc(C)cc2)CC1	> 5.76 µM (inactive)
COCCNC(=O)COC(=O)c1cc(-c2ccco2)nc2ccccc12	> 6.59 µM (inactive)
O=Cc1cccn1-c1ccc(C(=O)O)cc1	> 6.48 µM (inactive)

Structure (SMILES)	IC50
CN1CCN(C(=O)c2ccc(-c3nc(Nc4ccccc4)c4ncn(C5CCCCC5)c4n3)cc2)CC1	> 7.63 µM (inactive)
O=C1NC(=O)/C(=C\c2ccc(O)cc2O)S1	> 6.48 µM (inactive)
Cc1sc2nc(C)n3c(=O)n(CC(=O)NCc4ccco4)nc3c2c1C	> 6.48 µM (inactive)
CC(=O)CC1=C(C(=O)O)N2C(=O)C(N)C2SC1 (centres undefined)	> 6.48 µM (inactive)
O=C(NCc1ccccc1)N1CCN2C(=O)[C@@H]3CCCN3C(=O)[C@H]2C1	> 6.48 µM (inactive)
CN(C)/C=C/C=C/C(=O)c1cccc(C(=O)/C=C/C=C/N(C)C)c1O	> 6.48 µM (inactive)
Cc1cccc(CN2CCN(S(=O)(=O)c3ccccc3[N+](=O)[O-])CC2)c1	> 5.08 µM (inactive)
O=c1cc(/C=C/c2ccc(O)cc2)nc2nn[nH]n12	> 6.48 µM (inactive)
Clc1ccc2c(c1)CC(c1nc(Nc3cncnc3)c3ccccc3n1)CO2 (centres undefined)	> 6.48 µM (inactive)
C=CCNCCOCCOc1ccc(OCC)cc1	> 6.48 µM (inactive)
COc1ccc2c(c1)CC(C(=O)Nc1ccc(-c3cn[nH]c3)cc1C(=O)N(C)OC)CO2 (centres undefined)	> 6.48 µM (inactive)
O=C(OC1CCCC1=O)c1ccc(S(=O)(=O)N2CCCCC2)cc1 (centres undefined)	> 6.64 µM (inactive)
COC(=O)CCc1cc2c(C)cc(=O)oc2cc1OCc1ccc(C)cc1	> 6.48 µM (inactive)
CCOC(=O)C1C2NC(=S)N(CC)C1(C)Oc1ccc(Cl)cc12 (centres undefined)	> 8.6 µM (inactive)
O=C(C1CCC(Nc2nccc(-c3ccc4nc(C5CC5)[nH]c(=O)c4c3)n2)CC1)N1CCCC1 (centres undefined)	> 6.48 µM (inactive)
C[C@@H](O)[C@@H]1NC(=O)[C@H]2CN(C(=O)NC3CCCCC3)CCN2C1=O	> 6.48 µM (inactive)
Cc1ccc(/C=C/C(=O)NCc2ccccn2)o1	> 6.48 µM (inactive)
COc1ccc2c(c1)C1NC(=S)N(c3cccc(C)c3)C(C)(O2)C1C(=O)Nc1ccc(C)cc1C (centres undefined)	> 5.71 µM (inactive)
O=C1N[C@H](Cc2ccc(O)cc2)C(=O)N2CCN(C(=O)NCc3ccccc3)C[C@H]12	> 6.48 µM (inactive)
NC(=O)c1cccc(-c2cccs2)c1	> 6.74 µM (inactive)
O=C(Cn1cc(C(=O)c2ccco2)c2ccccc21)NCc1cccnc1	> 6.48 µM (inactive)
O=c1[nH]cnc2nc(-c3ccco3)c(-c3ccco3)nc12	> 7.63 µM (inactive)
COc1ccc2nc(-c3ccco3)c(-c3ccco3)nc2c1	inactive
CN(C)[C@@H]1C(=O)C(C(N)=O)=C(O)[C@@]2(O)C(=O)C3=C(O)c4c(O)cccc4[C@@](C)(O)[C@H]3[C@H](O)[C@@H]12	4.11 µM

Structure (SMILES)	IC50
O=C1N[C@H](Cc2ccccc2)C(=O)N2CCN(C(=O)NC3CCCCC3)C[C@H]12	> 6.48 µM (inactive)
Cc1ccc(C(=O)N/C(=C/c2ccc([N+](=O)[O-])o2)C(=O)O)cc1	> 5.88 µM (inactive)
O=C(O)c1cc2ncc(-c3n[nH]c(-c4cnc5cc(C(=O)O)nn5c4)c3[N+](=O)[O-])cn2n1	> 6.48 µM (inactive)
O=C(O)CCCNC(=O)/C=C/c1ccco1	> 6.48 µM (inactive)
O=S(=O)(O)c1ccc(N/N=C2\CCc3ccccc32)cc1	> 6.48 µM (inactive)
COc1ccc2c3c(cccc13)C(=O)N(C)C2=O	> 6.48 µM (inactive)
CC[C@@H]1NC(=O)[C@H]2CN(C(=O)NC3CCCCC3)CCN2C1=O	> 6.48 µM (inactive)
CCN(CC)C(=S)NC(=O)/C=C/c1ccco1	> 6.48 µM (inactive)
O=C1N[C@@H](CSCc2ccccc2)C(=O)N2CCN(C(=O)NC3CCCCC3)C[C@H]12	> 6.48 µM (inactive)
O=C(OC1(C(F)(F)F)C(=O)Nc2cc3c(cc21)OCO3)c1ccc(Cl)nc1 (centres undefined)	3.84 µM
Cc1ccc(-c2ncn(-c3ccc(Nc4cc(-n5cnc(Nc6ccccc6)n5)c(F)cn4)cc3)n2)cn1	> 6.48 µM (inactive)
O=C(O)c1cc(S(=O)(=O)Nc2ccncc2)ccc1O	> 7.05 µM (inactive)
CN(C)CCCNC(=O)c1cccc(CN(C(=O)c2nc3ccc(-c4cn[nH]c4)cc3s2)C2CC2)c1	> 6.48 µM (inactive)
NC(=O)Cn1cnc2sc3c(c2c1=O)CCC3	> 6.48 µM (inactive)
N#CC1=C(N)n2c(s/c(=C\c3ccco3)c2=O)=C(C#N)C1c1ccco1 (centres undefined)	> 6.53 µM (inactive)
CN(C)c1ccc(O)c2c1C[C@H]1C[C@H]3[C@H](N(C)C)C(=O)C(C(N)=O)=C(O)[C@@]3(O)C(=O)C1=C2O	3.08 µM
O=C1N[C@@H](COCc2ccccc2)C(=O)N2CCN(C(=O)NC3CCCCC3)C[C@H]12	> 6.48 µM (inactive)
COc1ccc(CN2CCN(Cc3cccc(Cl)c3)CC2)cc1Br	> 6.11 µM (inactive)
O=C(Nc1ccc(-c2ccncc2)c(C(F)(F)F)c1)C1COc2ccccc2O1 (centres undefined)	> 6.48 µM (inactive)
C/C=C\C1=C(C(=O)O)N2C(=O)C(NC(=O)C(N)c3ccc(O)cc3)C2SC1 (centres undefined)	> 6.48 µM (inactive)
COc1ccc2c(c1)CC(C(=O)Nc1ccc(-c3cn[nH]c3)cc1OCC#N)CO2 (centres undefined)	> 6.48 µM (inactive)
O=C(NC1CCCCC1)N1CCN2C(=O)[C@@H]3C[C@@H](O)CN3C(=O)[C@H]2C1	> 6.48 µM (inactive)
O=C(NCCO)c1ccc2nc(-c3ccco3)c(-c3ccco3)nc2c1	1.8 µM
O=C(O)c1ccc(CS(=O)(=O)c2ccccc2)o1	> 6.48 µM (inactive)

Structure (SMILES)	IC50
CC(=O)Oc1ccccc1N1C(=O)c2ccc(Oc3cccc(N)c3)cc2C1=O	2.14 µM
CCCCn1c(=O)[nH]c(=O)c2c1nc(-c1ccc([N+](=O)[O-])o1)n2C	> 7 µM (inactive)
O=C(COC(=O)/C=C/c1ccco1)NCc1ccco1	> 6.6 µM (inactive)
C[C@H]1NC(=O)[C@H]2CN(C(=O)NC3CCCCC3)CCN2C1=O	> 6.48 µM (inactive)
CC(C)[C@H]1NC(=O)[C@H]2CN(C(=O)NCc3ccccc3)CCN2C1=O	> 6.48 µM (inactive)
C/C(=N\NC(=O)Cc1cc(=O)[nH][nH]1)c1ccco1	> 6.48 µM (inactive)
c1coc(CNc2ccc3ncc(-c4ccco4)n3n2)c1	> 6.48 µM (inactive)
Cc1cccc(C(=O)Nc2c3c(nn2-c2ccc(F)cc2)CSC3)c1	> 5.53 µM (inactive)
NC(=O)n1c(CCC(=O)O)nc2sc3c(c2c1=O)CCC3	> 6.75 µM (inactive)
O=C(Cn1ncn2cccc2c1=O)N1CCc2ccccc2C1	> 6.48 µM (inactive)
CC(C)NC(=O)c1cccc(NC(=O)Nc2ccc(-c3ncnc4[nH]cc(Cl)c34)cc2)c1	> 6.48 µM (inactive)
COC(=O)c1ccc(=O)c2nc3/c(=C/O)c(O)cc(=O)c3[nH]c12	2.02 µM
Cc1cc(/C=C2/C=CC(=O)O2)oc1C	> 7.29 µM (inactive)
O=C(OC1CCCC1=O)c1ccc(Cl)c(S(=O)(=O)N2CCOCC2)c1 (centres undefined)	> 6.69 µM (inactive)
CN(Cc1ccco1)S(=O)(=O)c1ccc2[nH]cc(C(=O)O)c(=O)c2c1	> 6.48 µM (inactive)
Cc1nnc(CNC(=O)c2ccc(-n3cccc3)cc2)o1	> 6.48 µM (inactive)
O=C(Nc1ccc(N2CCOCC2)cc1)c1ccnc(Nc2ncccn2)c1	> 7.06 µM (inactive)
CC(C)[C@H]1NC(=O)[C@H]2CN(C(=O)NC3CCCCC3)CCN2C1=O	> 6.48 µM (inactive)
O=C1N[C@@H](Cc2c[nH]c3ccccc23)C(=O)N2CCN(C(=O)NC3CCCCC3)C[C@H]12	> 6.48 µM (inactive)
CN(N=O)c1cc(O)ccc1O	> 6.48 µM (inactive)
O=C1N[C@@H](Cc2ccccc2)C(=O)N2CCN(C(=O)NC3CCCCC3)C[C@H]12	> 6.48 µM (inactive)
CCC(C)C(=O)NCc1nnc2n1CCN(C/C=C/c1ccco1)CC2 (centres undefined)	> 6.48 µM (inactive)
